# Laboratory results taken from ChEMBL document CHEMBL5136992, “Fascinating Transformation of SAM-Competitive Protein Methyltransferase Inhibitors from Nucleoside Analogues to Non-Nucleoside Analogues” (J Med Chem, 2022).
# Assays:
# [1] = target: T1, Histone-lysine N-methyltransferase EZH2 (Homo sapiens, UniProt Q15910); assay: Inhibition of EZH2 (unknown origin)
# Target sequence in this assay (Q15910 whole entry): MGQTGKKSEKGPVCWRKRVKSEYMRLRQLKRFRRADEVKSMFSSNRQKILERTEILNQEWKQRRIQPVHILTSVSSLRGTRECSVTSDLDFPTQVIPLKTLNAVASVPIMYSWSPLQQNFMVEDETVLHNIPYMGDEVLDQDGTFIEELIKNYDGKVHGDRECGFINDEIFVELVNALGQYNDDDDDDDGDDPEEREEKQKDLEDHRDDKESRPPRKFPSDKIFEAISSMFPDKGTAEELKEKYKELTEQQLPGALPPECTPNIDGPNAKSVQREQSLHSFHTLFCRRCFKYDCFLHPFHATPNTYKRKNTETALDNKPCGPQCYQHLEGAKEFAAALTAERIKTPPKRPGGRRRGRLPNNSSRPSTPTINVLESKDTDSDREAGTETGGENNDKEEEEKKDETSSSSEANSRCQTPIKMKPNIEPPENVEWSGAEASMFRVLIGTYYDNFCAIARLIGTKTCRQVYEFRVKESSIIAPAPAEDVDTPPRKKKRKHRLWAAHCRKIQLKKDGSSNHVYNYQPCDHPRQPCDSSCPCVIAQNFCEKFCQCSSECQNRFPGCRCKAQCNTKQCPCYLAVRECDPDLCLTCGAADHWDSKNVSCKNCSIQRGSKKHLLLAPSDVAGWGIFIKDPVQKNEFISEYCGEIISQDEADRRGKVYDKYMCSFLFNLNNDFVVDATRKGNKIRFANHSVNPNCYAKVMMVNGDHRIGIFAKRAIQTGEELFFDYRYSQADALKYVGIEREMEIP
# [2] = Aqueous solubility of the compound; type: physicochemical; details: buffer
# [3] = target: Protein arginine N-methyltransferase 5 (Homo sapiens, UniProt O14744); assay: Inhibition of PRMT5 (unknown origin)
# [4] = target: T1, Histone-lysine N-methyltransferase EZH2; assay: Inhibition of wild type EZH2 (unknown origin)
# Target sequence in this assay (Q15910 whole entry): as above
# [5] = target: T2, Histone-lysine N-methyltransferase EZH2 (Homo sapiens, UniProt Q15910, Y641N); assay: Inhibition of EZH2 Y641N mutant (unknown origin)
# [6] = target: T3, Histone-lysine N-methyltransferase EHMT2 (Homo sapiens, UniProt Q96KQ7); assay: Inhibition of G9a (unknown origin)
# T3 sequence (Q96KQ7 whole entry): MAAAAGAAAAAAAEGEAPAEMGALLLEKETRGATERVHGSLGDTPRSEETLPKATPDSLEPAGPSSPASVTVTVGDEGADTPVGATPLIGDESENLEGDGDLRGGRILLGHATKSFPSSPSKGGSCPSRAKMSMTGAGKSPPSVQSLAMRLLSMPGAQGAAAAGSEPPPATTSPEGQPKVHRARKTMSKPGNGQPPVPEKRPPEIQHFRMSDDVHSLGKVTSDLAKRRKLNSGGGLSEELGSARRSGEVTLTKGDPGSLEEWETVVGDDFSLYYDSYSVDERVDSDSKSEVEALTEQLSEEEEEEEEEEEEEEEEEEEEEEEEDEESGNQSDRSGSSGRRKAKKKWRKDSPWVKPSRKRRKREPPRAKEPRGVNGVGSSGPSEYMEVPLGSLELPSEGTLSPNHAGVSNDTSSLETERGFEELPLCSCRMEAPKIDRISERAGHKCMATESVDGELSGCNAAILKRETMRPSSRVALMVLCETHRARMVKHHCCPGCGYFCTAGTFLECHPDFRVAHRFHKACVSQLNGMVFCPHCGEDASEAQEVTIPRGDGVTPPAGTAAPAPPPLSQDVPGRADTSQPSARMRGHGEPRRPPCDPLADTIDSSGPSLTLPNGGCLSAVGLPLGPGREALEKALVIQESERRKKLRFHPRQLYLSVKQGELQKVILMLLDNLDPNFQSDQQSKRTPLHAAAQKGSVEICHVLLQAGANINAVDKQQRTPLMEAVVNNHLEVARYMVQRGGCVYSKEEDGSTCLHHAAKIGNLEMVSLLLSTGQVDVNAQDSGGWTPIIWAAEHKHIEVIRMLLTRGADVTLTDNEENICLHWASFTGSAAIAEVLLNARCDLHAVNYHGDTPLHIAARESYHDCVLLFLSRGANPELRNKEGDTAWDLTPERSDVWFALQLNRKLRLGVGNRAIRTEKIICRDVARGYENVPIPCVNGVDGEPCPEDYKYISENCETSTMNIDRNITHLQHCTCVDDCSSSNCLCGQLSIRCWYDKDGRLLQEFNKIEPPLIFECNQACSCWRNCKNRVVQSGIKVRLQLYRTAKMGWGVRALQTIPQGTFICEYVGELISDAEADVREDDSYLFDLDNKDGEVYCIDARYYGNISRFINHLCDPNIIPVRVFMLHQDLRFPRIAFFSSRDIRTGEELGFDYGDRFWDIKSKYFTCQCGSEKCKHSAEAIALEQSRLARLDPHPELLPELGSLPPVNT
# [7] = target: T4, Histone-arginine methyltransferase CARM1 (Homo sapiens, UniProt Q86X55); assay: Inhibition of PRMT4 (unknown origin)
# T4 sequence (Q86X55 whole entry): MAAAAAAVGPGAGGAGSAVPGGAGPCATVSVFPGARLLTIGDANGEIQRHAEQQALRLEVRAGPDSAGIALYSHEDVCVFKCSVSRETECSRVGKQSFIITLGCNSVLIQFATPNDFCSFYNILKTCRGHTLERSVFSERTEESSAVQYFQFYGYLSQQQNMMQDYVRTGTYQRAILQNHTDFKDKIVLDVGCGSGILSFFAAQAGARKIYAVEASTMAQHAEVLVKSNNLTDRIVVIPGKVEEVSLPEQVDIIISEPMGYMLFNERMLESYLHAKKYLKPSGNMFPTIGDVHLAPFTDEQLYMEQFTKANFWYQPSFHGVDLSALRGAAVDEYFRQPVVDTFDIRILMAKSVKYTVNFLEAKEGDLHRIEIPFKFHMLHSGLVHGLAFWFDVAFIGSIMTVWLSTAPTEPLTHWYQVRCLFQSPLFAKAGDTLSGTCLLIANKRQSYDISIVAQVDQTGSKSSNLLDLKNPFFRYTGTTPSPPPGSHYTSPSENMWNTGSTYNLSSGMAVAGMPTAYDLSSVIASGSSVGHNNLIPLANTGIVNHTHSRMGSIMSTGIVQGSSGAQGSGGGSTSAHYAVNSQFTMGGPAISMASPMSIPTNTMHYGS
# [8] = target: T1, Histone-lysine N-methyltransferase EZH2; assay: Binding affinity to EZH2 (unknown origin) assessed as inhibition constant
# Target sequence in this assay (Q15910 whole entry): as the sequence (Q15910 whole entry) above
# [9] = target: T5, Histone-lysine N-methyltransferase, H3 lysine-79 specific (Homo sapiens, UniProt Q8TEK3); assay: Inhibition of DOT1L (unknown origin)
# cells = details: Homo sapiens, MCF-10A
# Description: Inhibition of methylation of H3K79 in human MCF-10A cells by fluorescence assay
# MV4-11 = assay: Antiproliferative activity against human MV4-11 cells; type: functional, cell-based
# [10] = target: T6, Histone-lysine N-methyltransferase SETD7 (Homo sapiens, UniProt Q8WTS6); assay: Inhibition of SET7 (unknown origin)
# T6 sequence (Q8WTS6 whole entry): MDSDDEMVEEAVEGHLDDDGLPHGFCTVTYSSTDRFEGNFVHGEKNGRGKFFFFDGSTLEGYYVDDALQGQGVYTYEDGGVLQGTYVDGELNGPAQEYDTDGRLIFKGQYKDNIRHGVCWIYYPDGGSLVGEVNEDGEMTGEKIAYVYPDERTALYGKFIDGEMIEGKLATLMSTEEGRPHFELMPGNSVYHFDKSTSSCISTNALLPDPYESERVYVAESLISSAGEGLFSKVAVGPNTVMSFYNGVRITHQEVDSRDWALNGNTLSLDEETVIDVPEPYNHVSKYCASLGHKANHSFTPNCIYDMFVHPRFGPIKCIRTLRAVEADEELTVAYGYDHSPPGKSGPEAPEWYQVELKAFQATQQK
# [11] = target: T1, Histone-lysine N-methyltransferase EZH2; assay: Inhibition of EZH2 (unknown origin) assessed as residence time
# Target sequence in this assay (Q15910 whole entry, looked up): as the sequence (Q15910 whole entry) above
# [12] = target: Protein arginine N-methyltransferase 1 (Homo sapiens, UniProt Q99873); assay: Inhibition of PRMT1 (unknown origin)
# [13] = target: T5, Histone-lysine N-methyltransferase, H3 lysine-79 specific; assay: Inhibition of human recombinant DOT1L by methyltransferase-Glo Bioluminescent assay
# [14] = target: T7, Histone-lysine N-methyltransferase EHMT1 (Homo sapiens, UniProt Q9H9B1); assay: Inhibition of EHMT1 (unknown origin)
# T7 sequence (Q9H9B1 whole entry): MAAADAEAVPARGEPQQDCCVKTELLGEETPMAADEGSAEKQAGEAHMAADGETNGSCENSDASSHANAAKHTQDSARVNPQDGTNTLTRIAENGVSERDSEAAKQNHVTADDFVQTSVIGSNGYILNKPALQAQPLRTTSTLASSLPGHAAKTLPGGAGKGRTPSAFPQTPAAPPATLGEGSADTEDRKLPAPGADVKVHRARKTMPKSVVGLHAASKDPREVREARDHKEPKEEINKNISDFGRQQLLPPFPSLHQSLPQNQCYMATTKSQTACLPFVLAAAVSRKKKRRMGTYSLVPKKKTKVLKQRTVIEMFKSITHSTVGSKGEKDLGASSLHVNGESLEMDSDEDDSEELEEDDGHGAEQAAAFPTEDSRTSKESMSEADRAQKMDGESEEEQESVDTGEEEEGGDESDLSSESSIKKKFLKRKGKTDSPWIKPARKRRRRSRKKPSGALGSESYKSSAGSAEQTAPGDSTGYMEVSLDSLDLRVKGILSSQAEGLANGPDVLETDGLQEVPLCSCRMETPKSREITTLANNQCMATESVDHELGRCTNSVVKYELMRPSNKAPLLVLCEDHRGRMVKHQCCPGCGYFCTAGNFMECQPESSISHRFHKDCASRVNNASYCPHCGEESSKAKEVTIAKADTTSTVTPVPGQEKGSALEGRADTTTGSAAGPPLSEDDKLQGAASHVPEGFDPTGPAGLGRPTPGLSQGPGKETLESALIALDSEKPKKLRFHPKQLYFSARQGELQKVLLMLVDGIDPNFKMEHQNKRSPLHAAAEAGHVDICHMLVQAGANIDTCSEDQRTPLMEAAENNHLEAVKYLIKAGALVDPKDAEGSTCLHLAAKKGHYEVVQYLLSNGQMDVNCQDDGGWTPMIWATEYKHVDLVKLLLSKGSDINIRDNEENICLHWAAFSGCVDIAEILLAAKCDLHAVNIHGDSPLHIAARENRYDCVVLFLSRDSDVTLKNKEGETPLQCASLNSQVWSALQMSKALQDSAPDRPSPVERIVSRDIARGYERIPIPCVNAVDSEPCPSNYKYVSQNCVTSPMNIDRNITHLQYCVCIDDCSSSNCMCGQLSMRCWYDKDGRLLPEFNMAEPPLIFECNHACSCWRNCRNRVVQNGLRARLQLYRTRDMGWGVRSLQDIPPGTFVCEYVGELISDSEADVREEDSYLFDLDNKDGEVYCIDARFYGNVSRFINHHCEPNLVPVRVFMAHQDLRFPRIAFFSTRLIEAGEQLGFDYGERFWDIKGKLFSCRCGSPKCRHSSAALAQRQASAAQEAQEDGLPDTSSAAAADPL
# [15] = target: T2, Histone-lysine N-methyltransferase EZH2; assay: Binding affinity to EZH2 Y641N mutant (unknown origin) assessed as inhibition constant
# T5 sequence (Q8TEK3 whole entry): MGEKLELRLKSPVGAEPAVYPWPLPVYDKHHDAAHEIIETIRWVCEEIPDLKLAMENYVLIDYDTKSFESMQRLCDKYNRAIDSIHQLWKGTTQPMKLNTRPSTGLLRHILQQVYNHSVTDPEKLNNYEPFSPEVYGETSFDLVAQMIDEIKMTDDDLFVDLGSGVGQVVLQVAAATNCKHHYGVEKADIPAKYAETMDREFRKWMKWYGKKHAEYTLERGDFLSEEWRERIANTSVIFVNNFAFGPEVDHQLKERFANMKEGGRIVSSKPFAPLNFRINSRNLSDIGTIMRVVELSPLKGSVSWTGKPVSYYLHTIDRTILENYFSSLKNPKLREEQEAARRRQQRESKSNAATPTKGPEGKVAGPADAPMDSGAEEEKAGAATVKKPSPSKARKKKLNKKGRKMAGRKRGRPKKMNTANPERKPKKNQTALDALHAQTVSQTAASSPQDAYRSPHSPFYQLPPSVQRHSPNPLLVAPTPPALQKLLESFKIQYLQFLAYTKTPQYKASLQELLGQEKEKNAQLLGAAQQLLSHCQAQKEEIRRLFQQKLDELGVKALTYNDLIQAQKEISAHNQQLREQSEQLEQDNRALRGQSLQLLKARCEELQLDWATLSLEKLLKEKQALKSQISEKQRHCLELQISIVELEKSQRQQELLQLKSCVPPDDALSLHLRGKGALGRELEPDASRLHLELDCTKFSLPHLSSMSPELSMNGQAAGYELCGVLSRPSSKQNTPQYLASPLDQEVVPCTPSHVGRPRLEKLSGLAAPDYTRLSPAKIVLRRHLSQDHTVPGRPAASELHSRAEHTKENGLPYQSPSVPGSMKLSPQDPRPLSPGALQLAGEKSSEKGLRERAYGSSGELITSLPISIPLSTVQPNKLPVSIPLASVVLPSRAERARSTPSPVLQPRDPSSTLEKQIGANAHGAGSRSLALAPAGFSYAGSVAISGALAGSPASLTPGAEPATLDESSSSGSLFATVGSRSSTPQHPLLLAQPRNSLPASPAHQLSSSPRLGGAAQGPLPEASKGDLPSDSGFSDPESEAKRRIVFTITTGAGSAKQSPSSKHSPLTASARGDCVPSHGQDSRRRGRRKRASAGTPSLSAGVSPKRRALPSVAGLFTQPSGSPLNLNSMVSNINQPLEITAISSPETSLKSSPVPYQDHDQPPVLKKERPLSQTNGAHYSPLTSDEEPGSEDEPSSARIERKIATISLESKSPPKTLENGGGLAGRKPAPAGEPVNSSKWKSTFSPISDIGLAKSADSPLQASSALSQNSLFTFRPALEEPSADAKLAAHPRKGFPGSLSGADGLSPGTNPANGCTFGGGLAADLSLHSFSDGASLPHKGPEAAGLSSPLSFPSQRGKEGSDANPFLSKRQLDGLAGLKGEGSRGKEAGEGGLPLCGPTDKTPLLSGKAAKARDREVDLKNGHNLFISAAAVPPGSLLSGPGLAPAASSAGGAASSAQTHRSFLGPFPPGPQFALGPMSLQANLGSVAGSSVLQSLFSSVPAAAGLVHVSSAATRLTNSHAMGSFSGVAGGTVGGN
# Chain of Protein arginine N-methyltransferase 5 (O14744 whole entry): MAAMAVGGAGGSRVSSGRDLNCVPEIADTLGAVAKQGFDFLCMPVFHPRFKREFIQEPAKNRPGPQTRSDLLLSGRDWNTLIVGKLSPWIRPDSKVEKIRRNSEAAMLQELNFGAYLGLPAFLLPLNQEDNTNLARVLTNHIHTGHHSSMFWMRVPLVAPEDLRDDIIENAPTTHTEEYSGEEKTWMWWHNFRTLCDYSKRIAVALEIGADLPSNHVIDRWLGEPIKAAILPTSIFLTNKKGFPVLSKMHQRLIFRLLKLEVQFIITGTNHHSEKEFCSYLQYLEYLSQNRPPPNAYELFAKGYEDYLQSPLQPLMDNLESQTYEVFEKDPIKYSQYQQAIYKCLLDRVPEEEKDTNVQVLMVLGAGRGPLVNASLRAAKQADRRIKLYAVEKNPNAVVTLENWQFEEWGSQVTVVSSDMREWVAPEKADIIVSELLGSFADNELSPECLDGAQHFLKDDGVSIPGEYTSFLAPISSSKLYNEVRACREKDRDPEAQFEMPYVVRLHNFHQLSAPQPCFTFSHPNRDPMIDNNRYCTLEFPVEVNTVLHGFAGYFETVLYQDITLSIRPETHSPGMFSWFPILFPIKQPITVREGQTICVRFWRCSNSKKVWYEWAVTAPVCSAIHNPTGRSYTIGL
# T2 sequence (Q15910 whole entry Y641N): as the sequence (Q15910 whole entry) above, with Y641N counted along it
# Chain of Protein arginine N-methyltransferase 1 (Q99873 whole entry): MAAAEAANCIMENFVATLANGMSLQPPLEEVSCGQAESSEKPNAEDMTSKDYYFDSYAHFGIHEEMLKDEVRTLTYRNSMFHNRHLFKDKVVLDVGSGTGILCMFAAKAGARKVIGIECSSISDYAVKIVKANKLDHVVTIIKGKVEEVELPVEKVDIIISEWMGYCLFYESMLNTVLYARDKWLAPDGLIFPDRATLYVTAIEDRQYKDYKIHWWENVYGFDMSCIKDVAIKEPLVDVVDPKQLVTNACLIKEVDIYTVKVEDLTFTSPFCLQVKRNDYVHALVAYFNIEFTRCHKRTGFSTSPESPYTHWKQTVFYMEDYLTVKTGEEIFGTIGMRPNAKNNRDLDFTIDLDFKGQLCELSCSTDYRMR
smiles,measurement,setting,value
Cc1cc(C)c(CN2CCc3c(Cl)cc(-c4c(C)noc4C)c(Cl)c3C2=O)c(=O)[nH]1,IC50,[1],< 5 nM
same,solubility,[2],2 µg/mL
Nc1ncnc2c1ccn2[C@H]1O[C@@H]([C@H](O)c2ccccc2)[C@H](O)[C@@H]1O,IC50,[3],9.5 nM
CCC(CC)n1ncc2c(C(=O)NCc3c(C)cc(C)[nH]c3=O)cc(C#N)cc21,IC50,[4],15 nM
same,IC50,[5],13 nM
Nc1ncnc2c1ncn2[C@H]1O[C@@H](CN(CCI)CCC[C@H](N)C(=O)O)[C@H](O)[C@@H]1O,IC50,[6],1800 nM
same,IC50,[7],1100 nM
Nc1cccc(CCC[C@@H]2C[C@H](n3ccc4c(N)ncnc43)[C@@H](O)[C@H]2O)n1,IC50,[3],0.4 nM
Cc1coc2c1C(=O)C(=O)c1c-2ccc2c1CC[C@@H](O)[C@]2(C)O,IC50,[1],550 nM
same,Ki,[8],194 nM
Cc1cc(C)c(CNC(=O)c2c(C)n([C@H](C)C3CCN(CC(F)(F)F)CC3)c3ccccc23)c(=O)[nH]1,IC50,[1],22 nM
CN(CCCNC(=O)CNC(=O)Nc1ccc2sc(Cl)c(-c3cccnc3)c2c1)[C@@H]1CCCC(c2ncnc3[nH]ccc23)C1 (some centres not stated),IC50,[9],< 100 nM
CCC(CC)n1ncc2c(C(=O)NCc3c(C)cc(C)[nH]c3=O)cc(C3CC3)nc21,IC50,[1],149 nM
CNc1ccnc(Nc2ccc3cc(C)n(-c4ccccc4Oc4cnc5c(c4)ncn5C)c3c2)n1,IC50,cells,16 nM
CC(C)(C)c1ccc(CC(=O)c2ncn(CC(=O)NCCn3ccc4c(N)ncnc43)n2)cc1,IC50,[9],1000 nM
CCNC(=O)NCCCSC[C@@H]1O[C@H](n2cnc3c(N)ncnc32)[C@@H](O)[C@H]1O,IC50,[3],6000 nM
COc1cccc(C(=O)NCc2c(C)cc(C)[nH]c2=O)c1Cl,IC50,[1],7.2 nM
Cc1cc(Nc2ccc3nc(C)cc(N)c3c2)nc(Nc2ccc3nc(C)cc(N)c3c2)n1,IC50,MV4-11,37100 nM
Nc1ncnc2c1ncn2[C@H]1O[C@@H](CSCC[C@H](N)C(=O)NCc2cc(-c3ccccc3)[nH]n2)[C@H](O)[C@@H]1O,IC50,[1],270 nM
CCCCCCNCCN(CC[C@H](N)C(=O)O)C[C@@H]1O[C@H](n2cnc3c(N)ncnc32)[C@@H](O)[C@H]1O,IC50,[10],> 10000 nM
NCCCN(CCCNc1ccccn1)C[C@@H]1O[C@H](n2cnc3c(N)ncnc32)[C@@H](O)[C@H]1O,IC50,[7],90 nM
Nc1ncnc2ccc(N(CC#CC(O)c3nccn3CCO)c3c(Cl)cccc3Cl)cc12 (configuration not stated),IC50,[9],14000 nM
CSc1cc(C)[nH]c(=O)c1CNC(=O)c1c(C)n([C@@H](C)[C@H]2CC[C@H](N3CC(OC4CC4)C3)CC2)c2ccccc12,IC50,[1],0.057 nM
same,TIME,[11],57 h
N=C(N)NCCCN(CCCN)C[C@@H]1O[C@H](n2cnc3c(N)ncnc32)[C@@H](O)[C@H]1O,IC50,[12],7200 nM
same,IC50,[7],2300 nM
COc1cc([C@H]2Oc3c(O)cc(CCCO)cc3[C@@H]2CO)ccc1O[C@@H]1O[C@@H](C)[C@@H](O)[C@@H](O)[C@H]1O,IC50,[13],399 nM
CC(C)N(CCCNC(=O)Nc1ccc(C(C)(C)C)cc1)C[C@@H]1O[C@H](n2cc(Br)c3c(N)ncnc32)[C@@H](O)[C@H]1O,IC50,cells,8.8 nM
Nc1ncnc2c1ncn2[C@H]1O[C@@H](C[C@H](N)CC[C@H](N)C(=O)O)[C@H](O)[C@@H]1O,IC50,[10],2500 nM
same,IC50,[14],513000 nM
same,IC50,[9],26000 nM
CCCc1cc(C)[nH]c(=O)c1CNC(=O)c1cc(-c2ccc(N3CCN(C(C)C)CC3)nc2)cc2c1cnn2C(C)C,IC50,[1],< 10 nM
NC(=O)CNC(=O)Nc1ccc2ccn(-c3ccccc3Cl)c2c1,IC50,[9],9000 nM
CO[C@@H](c1cc(Cl)c2c(c1Cl)C(=O)N(Cc1c(C)cc(C)[nH]c1=O)CC2)C1COC1,Ki,[15],< 0.1 nM
same,solubility,[2],315 µg/mL
CNc1ccnc(Nc2ccc3sc(Cl)c(-c4cc(-c5c(C)ncn(C)c5=O)cnc4Cl)c3c2)n1,IC50,[9],1400 nM
same,IC50,cells,23 nM
